In patent US4080471A, “Use of substituted isopropylaminopropanols for inducing inotropic effects of the human heart” (priority 1976, dated 1978):

Tests used:
[1] = molecular target: T1, beta-receptors of the heart (Felis catus, UniProt Q9TST6); test: Beta-adrenergic (chronotropic, heart frequency) effects on anesthetized cat pretreated with reserpine; format: in vivo; conditions: for potency relative to isoprenaline, chronotropic effect: isoprenaline = 1, cat i.v.; for ED50: iv, reserpinized anesthetized cat, i.v., estimated dose giving 50% of maximal effect, read-out: ED50 Heart Frequency
T1 construct: Heart frequency was registered with a cardiotachometer triggered by the ECG; from tissue; host or cells: heart of the anaesthetized cat in vivo (reserpine-pretreated, vagotomized)
T1 sequence (Q9TST6 whole entry): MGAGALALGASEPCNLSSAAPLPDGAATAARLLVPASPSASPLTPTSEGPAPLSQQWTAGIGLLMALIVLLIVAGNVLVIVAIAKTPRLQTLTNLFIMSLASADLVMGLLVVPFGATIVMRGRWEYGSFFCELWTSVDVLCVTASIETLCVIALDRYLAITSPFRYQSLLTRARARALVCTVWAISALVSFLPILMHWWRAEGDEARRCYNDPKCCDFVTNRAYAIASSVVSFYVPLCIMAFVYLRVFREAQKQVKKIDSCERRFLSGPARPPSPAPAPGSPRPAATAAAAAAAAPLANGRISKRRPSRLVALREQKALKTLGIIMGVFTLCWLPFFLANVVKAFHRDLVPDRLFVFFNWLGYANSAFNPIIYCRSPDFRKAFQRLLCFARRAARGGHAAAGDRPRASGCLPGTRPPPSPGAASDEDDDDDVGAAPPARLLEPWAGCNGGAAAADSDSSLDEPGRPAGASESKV
Method: (§1) Chronotropic (heart frequency) and vasodilatating effects:
(§2) When the cats had been anaesthetized with Mebumal® 30 mg/kg bodyweight i.p., an artificial air respiration was started. The two vagus nerves were cut and the blood passing through a femoral artery was fed via a catheter and a pump back to the distal part of the vessel. Parallelly, a pressure transducer was connected by which the perfusion pressure was registered. At a perfusion with a constant flow, the perfusion pressure is directly proportional to the peripheral resistance of the vascular bed of the hind limb. Blood circulation in the foot was interrupted with a ligature. Heart frequency was registered with a cardiotachometer triggered by the ECG. The substances were administered intravenously in increasing doses and the dose-response curves of the heart frequency and the vasodilatation were constructed.
(§3) Further, the dose ratios (ED50 for vasodilatation/ED50 for heart frequency) are calculated. A dose ratio >1 indicates a heart selective effect.

[2] = test system: beta-receptors of the heart; test: as above; format: in vivo
Method: as §1, §2, §3

[3] = molecular target: T2, beta-receptors of the blood vessels (Felis catus, UniProt Q9TST5); test: Vasodilatating effect (hind limb perfusion pressure) on anesthetized cat pretreated with reserpine; format: in vivo; conditions: iv; reserpinized anesthetized cat, i.v.; estimated dose giving 50% of maximal effect; read-out: ED50 Vasodilation
T2 construct: from tissue; host or cells: hind-limb vascular bed of the anaesthetized cat in vivo (constant-flow perfusion, reserpine-pretreated)
T2 sequence (Q9TST5 whole entry, the tested form may be a part): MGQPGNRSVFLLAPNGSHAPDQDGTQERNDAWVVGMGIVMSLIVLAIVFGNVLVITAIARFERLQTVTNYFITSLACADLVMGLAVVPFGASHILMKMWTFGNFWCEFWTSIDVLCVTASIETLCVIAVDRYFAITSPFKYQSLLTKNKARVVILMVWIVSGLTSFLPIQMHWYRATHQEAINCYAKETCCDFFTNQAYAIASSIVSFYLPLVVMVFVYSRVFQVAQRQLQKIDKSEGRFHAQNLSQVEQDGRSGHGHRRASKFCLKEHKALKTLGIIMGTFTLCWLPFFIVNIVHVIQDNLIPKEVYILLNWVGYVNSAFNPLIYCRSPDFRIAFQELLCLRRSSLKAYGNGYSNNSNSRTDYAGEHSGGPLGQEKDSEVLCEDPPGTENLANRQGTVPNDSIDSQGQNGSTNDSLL
Method: as §1, §2, §3

[4] = test system: heart; test: Effect on heart chronotropy and inotropy of a conscious dog; conditions: for Enddiastolic volume / Stroke volume / Mean arterial blood pressure / Peak aortic flow / Mean ejection rate / Max. dF/dt: change i.v. at heart frequency +10 beats/min, interpolated, paced; for Enddiastolic volume: calculated from left ventricle diameter; for Stroke volume: methyl scopolamine pretreated; for Mean ejection rate: stroke volume / ejection time; for side effects: I and II 10 and 20 μg/kg; for Max. dF/dt: maximum flow acceleration in aorta
Text: During anesthesia a catheter was introduced in the aorta, an electromagnetic flow probe was placed around the ascending aorta, and induction coils were placed diametrically on the inside of the left ventricle. The experiments were started about 2 weeks after the incision, when the dog had recovered completely.
When the dog was resting, the arterial blood pressure, the flow in the aorta, the maximum flow acceleration in the aorta (maximum dF/dt), heart frequency, the diameter of the left ventricle, and ECG were registered. The effects of compounds I and II were registered at 10, 20, and 30 minutes after administration. […] The compounds were given intravenously in the following doses. […] In order to eliminate vagal influence on the heart the dog was pretreated with methyl scopolamine 0.012 mg/kg bodyweight intramuscularily 20 minutes before the administration of the compounds. From the data giving the diameter of the left ventricle, the end diastolic volume was calculated according to E. W. Hawthorne. Mean ejection rate (ml/sec.) was calculated by dividing the stroke volume with the ejection time. […] The values given are the percentage changes after administration when the heart frequency has increased 10 beats per minute, values interpolated. […] In order to compare the inotropic effects of ouabain with those of the other compounds, the heart was stimulated in these experiments by electric pacing to a frequency which was 10 beats/minute above that registered before administration.
In order to investigate the absorption and duration of the effect, compounds I and II were given orally in an amount of 100 μg/kg bodyweight.

[5] = test system: heart; test: Effect on heart contractility (maximum dP/dt) of the anesthetized dog; format: in vivo
Text: (§4) Effects of Compound I and Ouabain On the Heart Contractility and Rhythmicity of the Anesthetized Dog
(§5) The object of the test was to compare compound I and oubain administered alone and in combination with each other to study the inotropic effect (maximum dP/dt in the left ventricle) and a possibly arrhythmic effect. The latter included an investigation of the ability of the compounds to cause repetitive ventricular response (RVR) when the heart was electrically stimulated via an electrode on the ventricle at the electrically vulnerable phase at the end of the T-wave. Klein et al. (M. Klein, N. S. Nejad, B. Lown, F. Hagemeijer and I. Blair, Circulation Research, 29, 635 (1971)) have shown that digitalis caused RVR at a dose which was about 70% of the dose giving spontaneous ventricular arrhythmias.
(§6) The dog was anesthetized with Mebumal® 30 mg/kg bodyweight i.v. Artificial respiration was applied. The sinus-node was electrocoagulated and the heart frequency was kept constant at 180 beats/minute in each test by electrical pacing of the auricle. Mean arterial blood pressure was registered from the carotis artery. ECG was registered during the test. Further, the pressure in the left ventricle was registered via a catheter inserted through the apex and connected to a pressure transducer. The intraventricular pressure curve was derivated to obtain maximum dP/dt which is a measure of the contractile force of the heart.
(§7) The test was started with a series of control registrations, whereupon the compounds were administered 3 times by infusion during five minutes and with an interval of 50 minutes between each infusion.
(§8) In the experiment with compound I only, the compound was administered in two doses of 10 μg/kg bodyweight and then one dose of 20 μg/kg bodyweight. Ouabain was given in 3 consecutive doses of 20 μg/kg bodyweight. In the combination test ouabain was first given in a dose of 20 μg/kg bodyweight followed by two doses of compound I of 10 and 20 μg/kg bodyweight, respectively.

[6] = test system: heart; test: Repetitive ventricular response (RVR) / spontaneous arrhythmia in the anesthetized dog; format: in vivo; conditions: 40 μg/kg bodyweight
Text: as §4, §5, §6, §7, §8

[7] = test system: heart; test: Ventricular arrhythmia in dogs after two-stage ligation of the left anterior coronary artery (third day post infarction); format: in vivo, dog; conditions: 1-norepinephrine 20 μg/kg/min infusion, 120 minutes
Method: Harris, A. S. Delayed Development of Ventricular Ectopic Rhythms following Coronary Occlusion, Cir. l, p 1318, (1950) described a method of two-stage ligation of the left anterior coronary artery in the dog. This method produces a multifocal ventricular arrhythmia that generally remains persistent on the first post ligation day (day 1-24 hours post infarct). The arrhythmia slowly disappears, and by the third post-ligation day the animal has essentially a normal sinus rhythm.
Maling, H. M. and Moran, N. C., Ventricular Arrhythmias Induced by Sympathominetic Amines in Unanesthetized Dogs Following Coronary Artery Occlussion, Cir.
METHODS, MATERIALS AND EXPERIMENTAL DESIGN
Seventeen adult female beagle dogs were used. Their ages ranged from one to three years. These animals were divided into two groups.
The first group consisted of 12 dogs and served as a control group. All animals were subjected to a two-stage ligation of the left anterior coronary artery. On the first post operative day these twelve animals were given various experimental antiarrhythmic agents as part of a routine testing procedure. It should be noted that, due to the nature of these agents, there would be no test drug or only trace amounts of test drug in the blood on day 3, and these amounts would cause little or no change on the outcome of a third day test. It should also be noted that all twelve of these animals has at least 85% ventricular ectopic beats on the morning after surgery in order to be accepted for testing.
On the third day post infarction the dogs were suspended in a standing position in a canvas sling. No anesthesia or sedation was used. ECGs were recorded as well as blood pressure. After a control period, an infusion of 20 μg/kg min. of 1-norepinephrine was begun using a Harvard infusion/withdrawal pump. This infusion lasted 120 minutes.
These five animals were all subjected to a two stage ligation of the anterior descending coronary artery. On day 1 and day 2 each dog was suspended in a canvas sling in the standing position and ECG, blood pressure, and other physiologic measurements were taken. […]

[8] = dose ratio >1 indicates a heart selective effect
[9] = conscious dog, ouabain 30 μg/kg i.v.
[10] = 20 minutes after administration, ouabain versus compound I
[11] = anesthetized dog, i.v. infusion

potency relative to isoprenaline, chronotropic effect [1] | ED50 [1] [mg/kg] | ED50 [3] [mg/kg] | Structure (SMILES) | Selectivity: ED50 Vasodilatation / ED50 Heart Frequency [2, 8] | Enddiastolic volume ([4]; ouabain 30 μg/kg i.v.) [%] | Stroke volume ([4]; ouabain 30 μg/kg i.v.) [%] | Mean arterial blood pressure ([4]; ouabain 30 μg/kg i.v.) [mm Hg] | Peak aortic flow ([4]; ouabain 30 μg/kg i.v.) [%] | Mean ejection rate ([4]; ouabain 30 μg/kg i.v.) [%] | side effects [4, 9] | Max. dF/dt ([4]; ouabain 30 μg/kg i.v.) [%] | other results
about 1/100 | 0.006 | > 1 | CC(C)NCC(O)COc1ccc(OC(=O)C(C)C)cc1 (centres unmarked) [II, 1-isopropylamino-3-(p-isobutyryloxyphenoxy)-propanol-2] | > 100 | -8 | 5 | 0 | 19 | 11 | No side effect was observed | 34 | time of maximum effect, oral ([4]; 100 μg/kg bodyweight orally): 30 min; oral effect (in words) ([4]; oral, 100 μg/kg bodyweight): comparable with those obtained after intravenous administration of 20 μg/kg bodyweight; positive inotropic effect compared with ouabain (in words) ([4]; versus relatively high dose of ouabain): comparable to the effect of the relatively high dose of ouabain
about 1/100 | 0.01 | > 1 | CC(C)NCC(O)COc1ccc(OC(=O)c2ccccc2)cc1 (centres unmarked) [III, 1-isopropylamino-3-(p-benzoyloxyphenoxy)-propanol-2] | > 100 |  |  |  |  |  |  |  | 
 | 0.06 | > 1 | CC(C)NCC(O)COc1ccc(OC(=O)C(C)(C)C)cc1 (centres unmarked) [IV, 1-isopropylamino-3-(p-pivaloyloxyphenoxy)-propanol-2] |  |  |  |  |  |  |  |  | Selectivity: ED50 Vasodilatation / ED50 Heart Frequency ([2]; in vivo): > 15
 |  |  | CC(C)NCC(O)c1ccc(O)c(O)c1 (centres unmarked) [Isoprenaline, reference compound] |  | -2 |  | -10 | 19 |  |  |  | mean blood pressure (in words) ([4]; conscious dog, infusion): decreased the mean blood pressure; contractility / inotropic effect in conscious dog (in words) ([4]; i.v.): increased the contractility less than compounds I and II
 |  |  | C[C@@H]1O[C@@H](O[C@H]2C[C@@H](O)[C@]3(CO)[C@H]4[C@H](O)C[C@]5(C)[C@@H](C6=CC(=O)OC6)CC[C@]5(O)[C@@H]4CC[C@]3(O)C2)[C@H](O)[C@H](O)[C@H]1O [Ouabain, reference compound] |  | -2 | 5 | 10 | 12 | 10 | vomiting | 30 | heart frequency (in words) [4, 9]: expected decrease of the heart frequency; time of maximum response after i.v. administration ([4]; ouabain 30 μg/kg i.v.): about 50 minutes; increase of aortic blood pressure ([5]; 20 minutes after administration): about 10 mm Hg; doses giving approximately the same level of maximum dP/dt (lower pair) [5, 10]: ~20 μg/kg bodyweight; doses giving corresponding effect on maximum dP/dt (higher pair) [5, 10]: 40 μg/kg bodyweight; effect on maximum dP/dt (in words) [5, 11]: increased maximum dP/dt; onset of effect on maximum dP/dt [5, 11]: within a minute; reduction of effect on maximum dP/dt after 50 minutes [5, 11]: only partly reduced after 50 minutes; time to maximal effect on maximum dP/dt [5, 11]: about 20 minutes; experiments with RVR [6]: more than 50%
 |  |  | NC[C@H](O)c1ccc(O)c(O)c1 [norepinephrine, reference compound] |  |  |  |  |  |  |  |  | duration of substantially high incidence of ectopic activity [7]: at least 90 minutes
